From patent US20230348538A1, “METHOD FOR TREATMENT OF DRY EYE COMPRISNG APPLYING P55PIK INHIBITOR” (Wuhan Yicheng Biological Technology Co., Ltd., priority 2020, published 2023)

Columns and labels:
[1] = test system: dry eye model induced by 0.2% benzalkonium chloride solution; assay: Benzalkonium chloride dry eye model: corneal fluorescein sodium staining score; format: in vivo, C57BL/6 mice; conditions: for Corneal fluorescein staining scores (x ± s): total score of 16 points
Description: The healthy male C57BL/6 mice were kept in a controlled environment with a temperature of (25±1)° C., a relative humidity of (25±5)%, and light-dark cycles (9 AM-9 PM) with simulated dawn and dusk. Forty mice (80 eyes) were treated with 5 μL of 0.2% benzalkonium chloride solution twice a day (8:00 AM and 6:00 PM) for 14 days to induce dry eye symptoms, while the remaining ten mice (20 eyes) received no treatment and served as a baseline control. Modeling was carried out on the 15th day; and the dry eye rat models were screened based on tear film break-up time (BUT), fluorescein sodium staining of corneal, and Schirmer's test I for tear secretion. Fluorescein sodium staining was carried out to determine if there any epithelial damage in the corneal of mice; one drop of 1% fluorescein sodium solution was instilled into the conjunctival sac of the mouse eyes; after 1 minute, the corneal epithelial stained by fluorescein sodium was observed under the cobalt blue filter on the slit lamp. Scoring criteria: the cornea was divided into 4 quadrants; and a scoring system was used to assess the staining; each quadrant was given a score ranging from 0 to 4 points, with a total score of 16 points. A score of 0 indicated no staining; 1 point represented less than 30 punctate staining spots; 2 points represented more than 30 punctate staining spots but not diffuse; 3 points represented obviously diffuse staining but no patchy staining; 4 points represented patchy staining. […] Group A, the drug treatment group, was treated with the eye drops comprising 0.1% TAT-[…] peptide, four times a day; Group B, the solvent control group, was treated with eye drops without TAT-[…] peptide, four times a day; and Group C, the blank control group, received no treatment; on days 1, 4, and 7 after treatment, BUT, Schirmer's test I, and fluorescein sodium staining were performed; on the 7th day, the paraffin sections of the conjunctival fornix was stained by PAS stain; and the number of PAS-positive goblet cells was counted.

[2] = test system: rabbit model of dry eye (0.1% benzalkonium chloride); assay: Rabbit model of dry eye: tear film break-up time test; format: in vivo, New Zealand white rabbits
Description: (§1) 1.2.1 Grouping: thirty New Zealand white rabbits were randomly divided into three groups, each comprising 10 rabbits: a blank control group, a solvent control group, and a drug treatment group.
(§2) 1.2.2 Preparation of a rabbit model of dry eye: the right eye of each rabbit was used to establish a dry eye rabbit model by administering 0.1% benzalkonium chloride eye drops twice a day for 4 weeks. After 4 weeks, the dry eye rabbit model was evaluated, with the conjunctiva appearing dry, tear production being reduced, and Schirmer test values being less than 10 mm/5 min (compared to the control group, where all Schirmer test values were above 10 mm).
1.2.3 Drug preparation and usage: a liquid formulation of 0.1% TAT-N16 peptide eye drops were prepared by dissolving the peptide raw materials in physiological saline according to a weight ratio of 0.1%. The eye drops comprising 0.1% TAT-N16 peptide were administered 2 drops, 3 times a day for 7 days. […]
1.3 Specimen collection and animal testing were conducted by the same individual. […] The rabbit conjunctiva appearance, fluorescein staining, tear film break-up time were analyzed using a slit lamp before and on days 4 and 7 after treatment; additionally, the Schirmer's test and conjunctival impression cytology (CIC) were carried out.
1.3.2 Tear film break-up time test: the fluorescein sodium ophthalmic strips were placed on the lower conjunctival sac for a moment, so that the fluorescein sodium was evenly distributed on the ocular surface; the eyelid was maintained open and observed under cobalt blue filter on a slit lamp; the tear film break-up time was recorded as the number of seconds that elapse between the last blink and the appearance of the first dry spot in the tear film of the cornea; The time from the opening of the eyelid to the appearance of the first dry spot on the tear film was recorded under a slit lamp microscope with cobalt blue light; each eye was measured three times, and the average of the three measurements was recorded in seconds.

[3] = test system: rabbit model of dry eye (0.1% benzalkonium chloride); assay: Rabbit model of dry eye: conjunctival impression cytology (CIC), goblet cell density; format: in vivo, New Zealand white rabbits; conditions: following medication; statistically significant; FIG. 5
Description: as §1
as §2, with “mm). […]” for “mm).”
1.3.3 Conjunctival impression cytology (CIC) examination: CIC examination was performed on days 1, 4, and 7 after treatment; the nitrocellulose membranes were cut into two strips of 3.5 mm×3.5 mm each, soaked in distilled water for 4 h, and then dried; after surface anesthesia, the rough side of the two strips of the nitrocellulose membranes were placed on the nasal and temporal quadrants of the conjunctiva and pressed for 10 seconds to obtain surface epithelial cells; the nitrocellulose membranes were then fixed in 95% ethanol and stained with periodic acid-Schiff (PAS); the number of the goblet cells was counted under an optical microscope and graded according to the Nelson scoring system.

[4] = test system: dry eye model induced by 0.2% benzalkonium chloride solution; assay: Benzalkonium chloride dry eye model: Schirmer's test I (phenol red thread); format: in vivo, C57BL/6 mice
Description: The healthy male C57BL/6 mice were kept in a controlled environment with a temperature of (25±1)° C., a relative humidity of (25±5)%, and light-dark cycles (9 AM-9 PM) with simulated dawn and dusk. Forty mice (80 eyes) were treated with 5 μL of 0.2% benzalkonium chloride solution twice a day (8:00 AM and 6:00 PM) for 14 days to induce dry eye symptoms, while the remaining ten mice (20 eyes) received no treatment and served as a baseline control. Modeling was carried out on the 15th day; and the dry eye rat models were screened based on tear film break-up time (BUT), fluorescein sodium staining of corneal, and Schirmer's test I for tear secretion. To assess tear secretion, Schirmer's test I was performed on mice at 3 PM each day using the phenol red thread; general anesthesia was induced by intraperitoneal injection of pentobarbital (50 mg/kg body weight); the lower eyelid was grasped and gently pulled down; front end of the phenol red thread, folded 1 mm, was placed on the conjunctival surface near the outer canthus of the lower eyelid for 15 seconds; the length of the red-stained portion of the phenol red thread was measured and recorded; the eyelid was then closed after the Schirmer's test I to avoid excessive exposure; each eye was tested twice, and the average length of the red-stained portion of the phenol red thread was recorded as the final result. […] Group A, the drug treatment group, was treated with the eye drops comprising 0.1% TAT-[…] peptide, four times a day; Group B, the solvent control group, was treated with eye drops without TAT-[…] peptide, four times a day; and Group C, the blank control group, received no treatment; on days 1, 4, and 7 after treatment, BUT, Schirmer's test I, and fluorescein sodium staining were performed; on the 7th day, the paraffin sections of the conjunctival fornix was stained by PAS stain; and the number of PAS-positive goblet cells was counted.

[5] = test system: rabbit model of dry eye (0.1% benzalkonium chloride); assay: Rabbit model of dry eye: conjunctiva appearance and fluorescein staining; format: in vivo, New Zealand white rabbits
Description: as §1, §2
1.2.3 Drug preparation and usage: a liquid formulation of 0.1% TAT-N16 peptide eye drops were prepared by dissolving the peptide raw materials in physiological saline according to a weight ratio of 0.1%. The eye drops comprising 0.1% TAT-N16 peptide were administered 2 drops, 3 times a day for 7 days. The blank control group received no treatment, and the solvent control group received physiological saline eye drops 2 drops, 3 times a day for 7 days. The normal eye group served as a normal control group.
1.3 Specimen collection and animal testing were conducted by the same individual. The examination time, location, illumination brightness, and temperature were consistent throughout the experiment. The rabbit conjunctiva appearance, fluorescein staining, tear film break-up time were analyzed using a slit lamp before and on days 4 and 7 after treatment; additionally, the Schirmer's test and conjunctival impression cytology (CIC) were carried out.

[6] = 7 days of continuous treatment, P<0.05

TAT-N16 peptide: cell-penetrating artificial peptide, sequence SEQ ID NO: 2, constructed by linking the peptide N16 to a TAT sequence; P55PIK inhibitor (YGRKKRRQRRRMMPYSTELIFYIEMDP)
Corneal fluorescein staining scores (x ± s) ([1]; 0 d (baseline), drug treatment group, 0.1% eye drops): 8.29 ± 1.31
Corneal fluorescein staining score compared with blank control group, model control group and solvent control group ([1]; 4th day of treatment): significantly lower
Corneal fluorescein staining scores (x ± s) ([1]; 4 d, 0.1% eye drops four times a day): 4.12 ± 0.81
Corneal fluorescein staining scores (x ± s) ([1]; 7 d, 0.1% eye drops four times a day): 2.79 ± 1.25
Corneal fluorescein staining score compared with blank control group, model control group and solvent control group [1, 6]: significantly lower
Tear film break-up time (BUT) values ([2]; 0 d / before treatment (baseline), drug treatment group): 8.24 ± 1.13 s
Tear film break-up time (BUT) values ([2]; 4 d, 0.1% eye drops 2 drops, 3 times a day): 11.72 ± 1.27 s
Tear film break-up time (BUT) values ([2]; 7 d, 0.1% eye drops 2 drops, 3 times a day): 15.31 ± 1.85 s
Goblet cell density (CIC examination) compared to before medication [3]: gradual increase
Tear secretion volume compared with blank control group and solvent control group ([4]; 4th day of treatment): significantly higher
Schirmer's test I values (x ± s) ([4]; 4 days of treatment, 0.1% eye drops four times a day): 5.14 ± 0.29 mm
Tear secretion volume compared with blank control group and solvent control group [4, 6]: significantly higher
Schirmer's test I values (x ± s) ([4]; 7 days of treatment, 0.1% eye drops four times a day): 5.88 ± 0.63 mm
Schirmer's test I values (x ± s) ([4]; before treatment (baseline), drug treatment group, 0.1% eye drops): 4.19 ± 0.24 mm
Appearance of the rabbit conjunctiva ([5]; after 4 days of treatment): improved
Dot-like and patchy fluorescein staining on the conjunctiva ([5]; after 4 days of treatment): decreased
Appearance of the rabbit conjunctiva ([5]; after 7 days of treatment): appeared moist
Fluorescein staining on the conjunctiva ([5]; after 7 days of treatment): no staining was observed
